According to patent US6908930B2, “4-substituted 7-AZA-indolin-2-ones and their use as protein kinase inhibitors” (Sugen, Inc., priority 1999, dated 2005):

How the values were obtained:
HER-2 = molecular target: T1, HER-2 (Homo sapiens, UniProt P04626); test: Assay for modulation of HER-2 activity in whole cells (ELISA); type: cell-based; details: EGFR/HER-2chimera/#T3-C7 cell lines, EGF stimulated; read-out: HER-2 kinase IC50
T1 construct: expressed in mouse 3T3 (clone C7) cells; P00533 (Epidermal growth factor receptor)
Description: Using the following reagents, supplies, and method, the ability of compounds of the invention to affect the activity of HER-2 in whole cells in an ELISA format can be assigned.
EGFR/HER-2chimera/#T3-C7 cell lines are used for this assay. Choose dishes having 80-90% confluence for the experiment. Collect cells by trypsinization and centrifuge at 1000 rpm at room temperature for 5 minutes.
Resuspend cells in starve medium and count with trypan blue. Only viability above 90% is acceptable. Seed cells in starve medium at a density of 2,500 cells per well, 90 μL per well, in a 96 well microtiter plate. Incubate seeded cells in 5% CO2 at 37° C. overnight. Start the assay two days after seeding.
Samples are diluted directly into a polypropylene plate containing starve-DMEM (non-sterile is okay). This dilution will be 1:10 or greater, depending on the samples being screened. The same amount of DMSO is put into the control wells. […] are then transferred to the cell plate at a 1:10 dilution (10 μL of sample and media into 90 μL of starve media). The final DMSO concentration will be 1% or lower.
Ten samples are put into wells 2-11 of row A of the NUNC 96 well polypropylene plate. These wells contain straight starve-DMEM. For a 1:10 dilution, one would put 10 μL of drug into 90 μL of media. The rest of the wells (including the controls) will have a DMSO/media mixture. The percentage of DMSO in this mixture is determined by the first dilution factor, in this case 1:10. The DMSO concentration is therefore 10%. An equal amount of drug and media from row A is put into row B, containing DMSO and media. The same amount is then taken out and put into row C. This is repeated for all rows. These are 1:2 dilutions. All wells are then transferred to the cell plate at a 1:10 dilution (10 μL of sample and media into 90 μL of starve-DMEM. The final DMSO concentration will be 1% or lower. […]
After a 2 hour incubation with the drug, add prepared EGF ligand to cells at 50 μL per well, for a final concentration of 50 nM. Positive control wells (8) receive the same amount of EGF. […] Incubate at 37° C. for 10 minutes.
Remove drug, EGF, and DMEM by dumping in sink. Wash cells once with PBS.
Transfer HNTG* to cells, 100 μL per well. Place on ice for 5 minutes. Meanwhile, remove blocking buffer from ELISA plate and wash as described above. With a pipette tip securely fitted to a micropipettor, scrape cells from plate and homogenize cell material by repeatedly aspirating and dispensing the HNTG* lysis buffer. Transfer lysate to a coated, blocked, washed ELISA plate. Alternatively, one may use a Costar transfer cartridge to transfer lysate to the ELISA plate. Incubate, shaking, at room temperature for one hour.
Remove lysate by dumping in sink, then wash as described earlier. Transfer freshly diluted anti-phosphotyrosine (anti-Ptyr) antibody (1:3000 in TEST) to ELISA plate, 100 μL per well. Incubate, shaking, at room temperature, for 30 minutes.
Remove anti-Ptyr antibody by dumping in sink, then wash as described earlier. Transfer freshly diluted BIOSOURCE antibody to ELISA plate, (1:8000 in TEST), 100 μL per well. Incubate, shaking, at room temperature for 30 minutes.
Remove BIOSOURCE antibody by dumping in sink, then wash as described earlier. Transfer freshly prepared ABTS/H2O2 solution to ELISA plate, […]. Incubate 5-10 minutes while shaking. Remove any bubbles and if necessary, stop reaction with the addition of 100 μL of 0.2 M HCl per well.
Read assay on Dynatech MR7000 ELISA reader. Test Filter: […]; Reference Filter: […]. A preferred template for the placement of controls in this experiment is provided below: […]

EGFR = molecular target: T2, EGFR (Homo sapiens, UniProt P00533); test: Assay for modulation of EGFR activity (ELISA); type: biochemical; details: read-out: bio EGFR IC50
T2 construct: A431 […] cell lysate is stored at −80° C; host or cells: A431 cell lysate
Description: Using the following reagents, supplies, and method, the ability of compounds of the invention to modulate the in vitro activity of EGFR can be readily determined in an ELISA.
A431 […] cell lysate is stored at −80° C.
ATP/MnCl2 phosphorylation mix is prepared by adding 300 μL of 1.0 mM ATP and […] of 1M MnCl2 to 9.2 mL of dH2O and mixing. Ten mL of phosphorylation mix is enough for about 6 assay plates. Note that the mixture should be made fresh and kept on ice immediately before use, and that although the preferred ATP is fresh from powder stock, any remaining stock solution of ATP may be frozen at −20° C. in small aliquots to be used at a later time.
Coat Corning 96 well ELISA plates with 0.5 μg per well with SUMO1 in a volume of 100 μL PBS overnight, at 4° C. Remove unbound SUMO1 from wells by inverting plate to remove liquid. Wash 1× with distilled H2O by filling wells. Pat the plate on a paper towel to remove excess liquid.
Add 150 μL of Blocking Buffer to each well. Incubate for 30 minutes at room temperature, with shaking. Wash plate 3× with deionized water, then once with TBST. Pat plate on a paper towel to remove excess liquid and bubbles.
Dilute lysate in PBS (7 μg lysate/[…]) and add 100 μL of diluted lysate to each well. Shake at room temperature for 60 minutes. Wash 1× with distilled H2O by filling wells. Pat the plate on a paper towel to remove excess liquid.
Add 120 μL TBST to ELISA plate containing captured EGFR.
Dilute drugs/extracts 1:10 (unless specified otherwise) in TBST in 96-well polypropylene plates. (i.e., 10 μL compound+90 μL TBST). Add 13.5 μL diluted drugs/extracts to ELISA plate. […] Incubate for 30 minutes while shaking at room temperature.
Approximately 150 μL final volume in well with 3 uM ATP/5 mM MnCl2 final concentration in well. Incubate 5 minutes while shaking. Note that this is a timed event. It is critical that ATP/MnCl2 phosphorylates the receptor for only 5 minutes. It is best to add the ATP/MnCl2 with an automated 96 place pipettor workstation, then 5 minutes later stop the reaction with EDTA using the same workstation. Alternatively, addition can be performed using a 12 channel pipettor 1 row at a time, leaving 20 seconds between each row so that the reaction may be stopped with EDTA exactly 5 minutes later (this depends on the number of plates being phosphorylated in one batch). Shake between each addition.
[…] This is done using either the same work station as above, or the same timing method employed with the 12 channel pipettor. After the EDTA has been added, shake for 1 minute. Wash 4× with deionized water, twice with TBST.
Add 100 μL per well of anti-phosphotyrosine (1:3000 dilution in TBST). Incubate 30-45 minutes at room temperature, with shaking. Wash 1× with distilled H2O by filling wells. Pat the plate on a paper towel to remove excess liquid.
Incubate 30 minutes at room temperature, with shaking. Wash 1× with distilled H2O by filling wells. Pat the plate on a paper towel to remove excess liquid.
Add 100 μL of ABTS/H2O2 solution to each well. Incubate 5 to 10 minutes while shaking. Remove any bubbles. If necessary stop reaction with the addition of 100 μL of 0.2M HCl per well.
Read assay on Dynatech MR7000 ELISA reader.

T1 sequence (P04626 720-987 limits assumed): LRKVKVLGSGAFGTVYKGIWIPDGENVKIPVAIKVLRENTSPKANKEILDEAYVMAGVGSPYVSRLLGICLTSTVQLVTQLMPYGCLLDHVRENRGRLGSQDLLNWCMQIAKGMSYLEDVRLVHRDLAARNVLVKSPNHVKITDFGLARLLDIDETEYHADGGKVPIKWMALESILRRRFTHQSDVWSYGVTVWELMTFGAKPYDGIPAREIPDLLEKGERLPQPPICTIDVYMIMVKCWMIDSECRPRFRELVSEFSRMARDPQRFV
T2 sequence (P00533 25-1210): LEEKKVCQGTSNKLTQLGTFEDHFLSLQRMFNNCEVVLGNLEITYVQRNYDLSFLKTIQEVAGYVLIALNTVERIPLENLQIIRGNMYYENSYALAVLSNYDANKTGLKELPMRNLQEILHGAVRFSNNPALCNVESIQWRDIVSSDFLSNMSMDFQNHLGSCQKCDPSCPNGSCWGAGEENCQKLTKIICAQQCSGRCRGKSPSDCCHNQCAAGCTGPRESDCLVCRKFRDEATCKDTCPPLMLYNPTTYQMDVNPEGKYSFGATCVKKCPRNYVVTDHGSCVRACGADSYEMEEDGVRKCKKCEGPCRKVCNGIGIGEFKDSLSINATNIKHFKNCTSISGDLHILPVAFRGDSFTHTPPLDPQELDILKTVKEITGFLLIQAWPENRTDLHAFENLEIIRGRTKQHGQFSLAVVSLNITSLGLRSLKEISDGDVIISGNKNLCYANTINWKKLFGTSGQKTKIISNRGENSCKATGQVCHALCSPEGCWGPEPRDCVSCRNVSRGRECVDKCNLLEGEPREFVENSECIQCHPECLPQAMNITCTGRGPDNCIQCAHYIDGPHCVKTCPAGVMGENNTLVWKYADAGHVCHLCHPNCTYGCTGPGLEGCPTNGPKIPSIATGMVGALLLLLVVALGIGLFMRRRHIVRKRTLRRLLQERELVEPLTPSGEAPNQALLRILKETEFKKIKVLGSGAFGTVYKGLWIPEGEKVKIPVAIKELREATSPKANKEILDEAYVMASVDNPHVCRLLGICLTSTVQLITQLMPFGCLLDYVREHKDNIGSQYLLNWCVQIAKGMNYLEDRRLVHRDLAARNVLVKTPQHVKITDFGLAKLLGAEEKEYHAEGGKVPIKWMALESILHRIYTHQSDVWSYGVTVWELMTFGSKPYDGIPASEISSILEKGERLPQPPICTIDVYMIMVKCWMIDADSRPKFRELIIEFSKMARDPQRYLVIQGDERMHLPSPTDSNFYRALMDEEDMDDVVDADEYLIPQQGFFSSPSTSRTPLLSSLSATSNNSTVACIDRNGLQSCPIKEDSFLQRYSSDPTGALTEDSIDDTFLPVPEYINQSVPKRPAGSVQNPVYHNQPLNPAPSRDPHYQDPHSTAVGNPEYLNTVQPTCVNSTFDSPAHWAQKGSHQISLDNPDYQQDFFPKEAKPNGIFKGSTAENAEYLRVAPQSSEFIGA

SMILES | IC50 (HER-2) [nM] | IC50 (EGFR) [nM]
Cc1cc(CCC(=O)N2CCN(C)CC2)[nH]c1/C=C1\C(=O)Nc2ncnc(Nc3ccc(F)c(Cl)c3)c21 [Formula 25] | 11900 | 58
CCN(CC)CCNC(=O)c1c(C)[nH]c(/C=C2\C(=O)Nc3ncnc(Nc4ccc(F)c(Cl)c4)c32)c1C [Formula 28] | 160 | 210
Cc1cc(C(=O)NCCN2CCOCC2)[nH]c1/C=C1\C(=O)N(C)c2ncnc(Nc3ccc(F)c(Cl)c3)c21 [Formula 32] | 18700 | 7140
Cc1cc(/C=C2\C(=O)Nc3ncnc(Nc4ccc(F)c(Cl)c4)c32)[nH]c1C(=O)N1CCN(C)CC1 [Formula 35] | 590 | 400
Cc1cc(CCC(=O)O)[nH]c1/C=C1\C(=O)Nc2ncnc(Nc3ccc(F)c(Cl)c3)c21 [Formula 49] | 1800 | 5
Cc1[nH]c(/C=C2\C(=O)Nc3ncnc(Nc4ccc(F)c(Cl)c4)c32)c(C)c1CC(=O)O [Formula 51] | 860 | 38
